Measured values reported in the supplement of paper PMC10307832.

What was measured:
Assay in all cases: relative viability (nuclei count vs DMSO), 5 days (fraction); higher = more cells survive
Adavosertib = compound: C=CCn1c(=O)c2cnc(Nc3ccc(N4CCN(C)CC4)cc3)nc2n1-c1cccc(C(C)(C)O)n1 [Adavosertib]
Outline: (§1)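 Five library-drug doses, separated by factors of √10, were pinned into 1536-well plates holding lung cancer cell lines after an overnight stay at 37 °C. Cells were fixed, permeabilised and Hoechst-stained in one step after 5 days without medium change, then imaged at 4×. Viability compares treated-well with vehicle-well nuclei, counted in MetaXpress, as a median across plates. Passing plates had control CV below 25% and at least one doubling.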

Nelarabine = compound: COc1nc(N)nc2c1ncn2[C@@H]1O[C@H](CO)[C@@H](O)[C@@H]1O [Nelarabine]
Outline: as §1

Adavosertib + Alpelisib = compound: C=CCn1c(=O)c2cnc(Nc3ccc(N4CCN(C)CC4)cc3)nc2n1-c1cccc(C(C)(C)O)n1 [Adavosertib] + Cc1nc(NC(=O)N2CCC[C@H]2C(N)=O)sc1-c1ccnc(C(C)(C)C(F)(F)F)c1 [Alpelisib] (partner 2 µM)
Outline: (§2)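 One day after seeding in 1536-well plates, lung cancer cell lines were dosed by pin tool. Dosing was either single-drug or a fixed anchor-drug dose plus five library-drug doses (not always all listed) in √10 steps. After 5 days, nuclei were stained in one fix-and-stain step and counted on 4× images, and relative viability is the nuclei count of treated wells over that of vehicle wells, given as the median of duplicate plates.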

Nelarabine + Bortezomib = compound: COc1nc(N)nc2c1ncn2[C@@H]1O[C@H](CO)[C@@H](O)[C@@H]1O [Nelarabine] + CC(C)C[C@H](NC(=O)[C@H](Cc1ccccc1)NC(=O)c1cnccn1)B(O)O [Bortezomib] (partner 0.002 µM)
Outline: as §2

Cell Line	relative viability (Adavosertib; 0.01 µM)	relative viability (Adavosertib; 0.03162 µM)	relative viability (Adavosertib; 0.1 µM)	relative viability (Adavosertib; 0.3162 µM)	relative viability (Nelarabine; 0.01 µM)	relative viability (Nelarabine; 0.03162 µM)	relative viability (Nelarabine; 0.1 µM)	relative viability (Nelarabine; 0.3162 µM)	relative viability (Nelarabine; 1 µM)	relative viability (Adavosertib + Alpelisib; first compound 0.01 µM)	relative viability (Adavosertib + Alpelisib; first compound 0.03162 µM)	relative viability (Adavosertib + Alpelisib; first compound 0.1 µM)	relative viability (Adavosertib + Alpelisib; first compound 0.3162 µM)	relative viability (Nelarabine + Bortezomib; first compound 0.01 µM)	relative viability (Nelarabine + Bortezomib; first compound 0.03162 µM)	relative viability (Nelarabine + Bortezomib; first compound 0.1 µM)	relative viability (Nelarabine + Bortezomib; first compound 0.3162 µM)	relative viability (Nelarabine + Bortezomib; first compound 1 µM)
EPLC-272H	0.853	0.961	0.757	0.497	1.01	1	0.878	0.952	0.881	0.918	0.893	0.868	0.723	1.04	0.925	0.823	0.887	0.981
NCI-H1355	0.991	0.99	0.948	0.986	1.18	0.875	1.03	1.04	1.02	0.878	0.84	0.777	0.751	1.39	1.05	1.25	1.32	1.37
LOU-NH91	0.956	0.992	0.974	0.918	0.948	0.944	0.935	1.02	0.956	0.704	0.758	0.731	0.66	0.447	0.519	0.553	0.474	0.513
HCC-78	0.85	0.973	1.03	1.04	1.01	0.942		1.05	0.932	0.347	0.305	0.443	0.278	0.771	0.497		0.584	0.539
NCI-H322M	0.85	0.953	0.845	0.61	0.963	0.896	0.884	0.937	0.923		0.77	0.711	0.543	1.29	1.2	1.18	1.28	1.46
HCC-15	0.979	1.05	1.07	1.23	1.16	0.978	1.06	1.07	1.06	0.904	0.916	0.987	1.04	1.33	0.917	1.18	1.11	1.14
A-427	1.02	1.02	1.05	0.894	1.06	1.08	1.04	1.05	0.938	1.08	1.11	1.1	1.04	1.01	0.846	1.01	0.895	0.961
NCI-H2228	0.994	0.996	0.946	0.616	1.17	0.991		1.35	0.948	0.839	0.694	0.829	0.343	1.45	1.52		1.35	1.03
CAL-12T	0.948	1.07	1.1	0.856	1.15	1.02	0.969	0.99	1.05	1.09	1.27	1.2	0.929	1.11	0.973	1.31	0.958	0.959
NCI-H460	1.03	1.01	1.02	1.08	1.24	1.09	1.01	1.2	1	0.543	0.518	0.374	0.21		1.34	1.69	1.37	1.1
NCI-H661	0.996	1.03	1.08	0.769	1.07	1.14	1	1.04	0.999	0.492	0.968	0.503	0.595	0.986	0.932	0.866	0.912	0.866
HARA	0.929	1.04	1.01	0.897	1.2	1.14	0.97	1.06	1.01	0.746	0.858	0.814	0.63	1.19	1.08	1.16	1.21	1.02
NCI-H1437	1.02	0.912	1.03	0.981	1.21	0.989	0.994	1.04	0.918	1.01	1.02	0.897	0.977	0.678	0.523	0.553	0.479	0.444
201T	0.973	1.02	0.981	1.04	1.03	0.907	1.04	1.02	0.999	0.986	1.03	0.94	0.962	1.11	1.02	1.12	1.15	1.08
LC-2-ad	0.979	1.02	1.01	1.13	1.14	1.05	0.984	1.05	0.989	0.768	0.84	0.791	0.804	1.08	1.03	0.972	1.26	1.07
NCI-H441	1.16	1.01	1.19	1.02	1.31	1.11	0.987	1.14	1.09	0.807	0.745	0.764	0.596	0.357	0.71	0.613	0.519	0.567
